Test results: patent US7271165B2, “Rifamycin analogs and uses thereof” (priority 2003, dated 2007)
In brackets after ≈: the same amount, converted by molar mass. Read-outs that look alike come from different tables or passages of the source.

Experiments:
S. aureus = assay: MIC assay, S. aureus; format: cell-based, Staphylococcus aureus
S. pneumo. = assay: MIC assay, S. pneumo.; format: cell-based, Streptococcus pneumoniae
E. faecalis = assay: MIC assay, E. faecalis; format: cell-based, Enterococcus faecalis
H. flu = format: cell-based, H. influenza
E coli = assay: MIC assay, E coli; format: cell-based

Row | Compound | MIC (μg/mL) S. aureus (S. aureus) [µg/mL] | MIC (μg/mL) S. pneumo. (S. pneumo.) [µg/mL] | MIC (μg/mL) E. faecalis (E. faecalis) [µg/mL] | MIC (μg/mL) H. flu (H. flu; H. flu) [µg/mL] | MIC (μg/mL) E coli (E coli) [µg/mL] | MIC (μg/mL) H. flu (H. flu) [µg/mL]
1 | COC1C=COC2(C)Oc3c(C)c(O)c4c(=O)c(c5oc6cc(N7CCN8CCCC8C7)cc(O)c6nc-5c4c3C2=O)NC(=O)C(C)=CC=CC(C)C(O)C(C)C(O)C(C)C(O)C1C (stereo not drawn) [Compound 83] | 0.002 (≈ 0.00226 µM) | 0.00025 (≈ 0.000283 µM) | 0.03 (≈ 0.034 µM) | 0.25 (≈ 0.283 µM) | 4 (≈ 4.53 µM) | 
2 | COC1C=COC2(C)Oc3c(C)c(O)c4c(=O)c(c5oc6cc(N7CCN8CCCC8C7)cc(O)c6nc-5c4c3C2=O)NC(=O)C(C)=CC=CC(C)C(O)C(C)C(O)C(C)C(O)C1C (stereo not drawn) [Compound 84] | 0.004 (≈ 0.00453 µM) | 0.00025 (≈ 0.000283 µM) | 0.03 (≈ 0.034 µM) | 0.25 (≈ 0.283 µM) | 8 (≈ 9.06 µM) | 
3 | COC1C=COC2(C)Oc3c(C)c(O)c4c(=O)c(c5oc6cc(N7CCN(Cc8ccccc8)CC7)cc(O)c6nc-5c4c3C2=O)NC(=O)C(C)=CC=CC(C)C(O)C(C)C(O)C(C)C(O)C1C (stereo not drawn) [Compound 86] | 0.03 (≈ 0.0322 µM) | 0.001 (≈ 0.00107 µM) | >8 | 8 (≈ 8.57 µM) | >8 | 
4 | COC1C=COC2(C)Oc3c(C)c(O)c4c(=O)c(c5oc6cc(N7CC(C)NC(C)C7)cc(O)c6nc-5c4c3C2=O)NC(=O)C(C)=CC=CC(C)C(O)C(C)C(O)C(C)C(O)C1C (stereo not drawn) [Compound 87] | 0.008 (≈ 0.00918 µM) | 0.0005 (≈ 0.000574 µM) | 0.06 (≈ 0.0689 µM) | 0.25 (≈ 0.287 µM) | 4 (≈ 4.59 µM) | 
5 | CCC1CN(c2cc(O)c3nc4c5c6c7c(C)c(O)c5c(=O)c(c-4oc3c2)NC(=O)C(C)=CC=CC(C)C(O)C(C)C(O)C(C)C(O)C(C)C(OC)C=COC(C)(O7)C6=O)CC(CC)N1 (stereo not drawn) [Compound 88] | 0.03 (≈ 0.0334 µM) | 0.0005 (≈ 0.000556 µM) | 0.12 (≈ 0.133 µM) | 0.25 (≈ 0.278 µM) | 4 (≈ 4.45 µM) | 
6 | COCCN1CCN(c2cc(O)c3nc4c5c6c7c(C)c(O)c5c(=O)c(c-4oc3c2)NC(=O)C(C)=CC=CC(C)C(O)C(C)C(O)C(C)C(O)C(C)C(OC)C=COC(C)(O7)C6=O)CC1 (stereo not drawn) [Compound 89] | 0.004 (≈ 0.00444 µM) | 0.00025 (≈ 0.000277 µM) | 0.12 (≈ 0.133 µM) | 0.25 (≈ 0.277 µM) | 8 (≈ 8.88 µM) | 
7 | CCC1CN(c2cc(O)c3nc4c5c6c7c(C)c(O)c5c(=O)c(c-4oc3c2)NC(=O)C(C)=CC=CC(C)C(O)C(C)C(O)C(C)C(O)C(C)C(OC)C=COC(C)(O7)C6=O)CC(C)N1 (stereo not drawn) [Compound 90] | 0.004 (≈ 0.00452 µM) | 0.00012 (≈ 0.000136 µM) | 0.5 (≈ 0.565 µM) | 0.25 (≈ 0.282 µM) | 4 (≈ 4.52 µM) | 
8 | CCOc1c(N2CCN(CC)CC2)ccc2nc3c4c5c6c(C)c(O)c4c(=O)c(c-3oc12)NC(=O)C(C)=CC=CC(C)C(O)C(C)C(O)C(C)C(O)C(C)C(OC)C=COC(C)(O6)C5=O (stereo not drawn) [Compound 91] | 0.008 (≈ 0.0089 µM) | 0.0005 (≈ 0.000556 µM) | 0.5 (≈ 0.556 µM) | 0.25 (≈ 0.278 µM) | 8 (≈ 8.9 µM) | 
9 | CCOc1c(N2CCN(CCOC)CC2)cc(N2CCN(CCOC)CC2)c2nc3c4c5c6c(C)c(O)c4c(=O)c(c-3oc12)NC(=O)C(C)=CC=CC(C)C(O)C(C)C(O)C(C)C(O)C(C)C(OC)C=COC(C)(O6)C5=O (stereo not drawn) [Compound 92] | 0.12 (≈ 0.112 µM) | 0.001 (≈ 0.000933 µM) | 8 (≈ 7.47 µM) | 2 (≈ 1.87 µM) | >8 | 
10 | CCOc1c(N2CCN(CCOC)CC2)ccc2nc3c4c5c6c(C)c(O)c4c(=O)c(c-3oc12)NC(=O)C(C)=CC=CC(C)C(O)C(C)C(O)C(C)C(O)C(C)C(OC)C=COC(C)(O6)C5=O (stereo not drawn) [Compound 93] | 0.015 (≈ 0.0161 µM) | 0.005 (≈ 0.00538 µM) | 1 (≈ 1.08 µM) | 0.5 (≈ 0.538 µM) | >8 | 
11 | COC1C=COC2(C)Oc3c(C)c(O)c4c(=O)c(c5n(C)c6cc(N7CC(C)NC(C)C7)ccc6nc-5c4c3C2=O)NC(=O)C(C)=CC=CC(C)C(O)C(C)C(O)C(C)C(O)C1C (stereo not drawn) [Compound 94] | 1 (≈ 1.15 µM) | 2 (≈ 2.3 µM) | >8 | 4 (≈ 4.61 µM) | >8 | 
12 | COC1C=COC2(C)Oc3c(C)c(O)c4c(=O)c(c5oc6cc(N7CCN(C8CCN(C)CC8)CC7)cc(O)c6nc-5c4c3C2=O)NC(=O)C(C)=CC=CC(C)C(O)C(C)C(O)C(C)C(O)C1C (stereo not drawn) [Compound 95] | 0.015 (≈ 0.016 µM) | 0.002 (≈ 0.00213 µM) | 0.5 (≈ 0.532 µM) | 1 (≈ 1.06 µM) | >8 | 
13 | COC1C=COC2(C)Oc3c(C)c(O)c4c(=O)c(c5oc6cc(N7CCN(CC8CC8)CC7)cc(O)c6nc-5c4c3C2=O)NC(=O)C(C)=CC=CC(C)C(O)C(C)C(O)C(C)C(O)C1C (stereo not drawn) [Compound 96] | 0.008 (≈ 0.00892 µM) | 0.0005 (≈ 0.000557 µM) | 0.06 (≈ 0.0669 µM) | 0.25 (≈ 0.279 µM) | 2 (≈ 2.23 µM) | 
14 | COC1C=COC2(C)Oc3c(C)c(O)c4c(=O)c(c5oc6cc(N7CC(C)NCC7C)cc(O)c6nc-5c4c3C2=O)NC(=O)C(C)=CC=CC(C)C(O)C(C)C(O)C(C)C(O)C1C (stereo not drawn) [Compound 97] | 0.004 (≈ 0.00459 µM) | 0.0005 (≈ 0.000574 µM) | 0.12 (≈ 0.138 µM) | 0.25 (≈ 0.287 µM) | 4 (≈ 4.59 µM) | 
15 | COC1C=COC2(C)Oc3c(C)c(O)c4c(=O)c(c5oc6cc(N7CCN(CCO)CC7)cc(O)c6nc-5c4c3C2=O)NC(=O)C(C)=CC=CC(C)C(O)C(C)C(O)C(C)C(O)C1C (stereo not drawn) [Compound 98] | 0.008 (≈ 0.00902 µM) | 0.0005 (≈ 0.000564 µM) | 0.12 (≈ 0.135 µM) | 0.25 (≈ 0.282 µM) | 8 (≈ 9.02 µM) | 
16 | COC1C=COC2(C)Oc3c(C)c(O)c4c(=O)c(c5oc6cc(N7CCN(c8ccccc8)CC7)cc(O)c6nc-5c4c3C2=O)NC(=O)C(C)=CC=CC(C)C(O)C(C)C(O)C(C)C(O)C1C (stereo not drawn) [Compound 99] | 0.004 (≈ 0.00435 µM) | 0.001 (≈ 0.00109 µM) | 0.06 (≈ 0.0653 µM) | 0.25 (≈ 0.272 µM) | 4 (≈ 4.35 µM) | 
17 | COC1C=COC2(C)Oc3c(C)c(O)c4c(=O)c(c5oc6cc(N7CCN(CCN(C)C)CC7)cc(O)c6nc-5c4c3C2=O)NC(=O)C(C)=CC=CC(C)C(O)C(C)C(O)C(C)C(O)C1C (stereo not drawn) [Compound 100] | 0.03 (≈ 0.0328 µM) | 0.008 (≈ 0.00875 µM) | 0.5 (≈ 0.547 µM) | 0.12 (≈ 0.131 µM) | >8 | 
18 | COC1C=COC2(C)Oc3c(C)c(O)c4c(=O)c(c5sc6cc(N7CCN(C)CC7)ccc6nc-5c4c3C2=O)NC(=O)C(C)=CC=CC(C)C(O)C(C)C(O)C(C)C(O)C1C (stereo not drawn) [Compound 101] | 0.002 (≈ 0.00233 µM) | 0.00012 (≈ 0.00014 µM) | 0.12 (≈ 0.14 µM) | 0.12 (≈ 0.14 µM) | 2 (≈ 2.33 µM) | 
19 | COC1C=COC2(C)Oc3c(C)c(O)c4c(=O)c(c5oc6cc(N7CCNCC7)cc(O)c6nc-5c4c3C2=O)NC(=O)C(C)=CC=CC(C)C(O)C(C)C(O)C(C)C(O)C1C (stereo not drawn) [Compound 104] | 0.008 (≈ 0.00949 µM) | 0.002 (≈ 0.00237 µM) | 0.06 (≈ 0.0712 µM) |  | 4 (≈ 4.75 µM) | 0.12 (≈ 0.142 µM)
20 | CCOc1c(N2CCN(CC3CC3)CC2)ccc2nc3c4c5c6c(C)c(O)c4c(=O)c(c-3oc12)NC(=O)/C(C)=C\C=C\[C@H](C)[C@H](O)[C@@H](C)[C@@H](O)[C@@H](C)[C@H](O)[C@H](C)[C@@H](OC)/C=C/O[C@@](C)(O6)C5=O [Compound 105] | 0.03 (≈ 0.0324 µM) | 0.015 (≈ 0.0162 µM) | 0.5 (≈ 0.54 µM) | 1 (≈ 1.08 µM) | >8 | 
21 | CO[C@H]1/C=C/O[C@@]2(C)Oc3c(C)c(O)c4c(=O)c(c5oc6c(F)c(N7CCN(CC(C)C)CC7)ccc6nc-5c4c3C2=O)NC(=O)/C(C)=C\C=C\[C@H](C)[C@H](O)[C@@H](C)[C@@H](O)[C@@H](C)[C@H](O)[C@@H]1C [Compound 106] | 0.03 (≈ 0.0333 µM) | 0.008 (≈ 0.00888 µM) | 0.5 (≈ 0.555 µM) | 0.5 (≈ 0.555 µM) | 8 (≈ 8.88 µM) | 
22 | COC1C=COC2(C)Oc3c(C)c(O)c4c(=O)c(c5oc6cc(N7CCN(C(=O)C8CC8)CC7)cc(O)c6nc-5c4c3C2=O)NC(=O)C(C)=CC=CC(C)C(O)C(C)C(O)C(C)C(O)C1C (stereo not drawn) [Compound 107] | 0.015 (≈ 0.0165 µM) | 0.004 (≈ 0.00439 µM) | 0.5 (≈ 0.549 µM) | 0.25 (≈ 0.274 µM) | 8 (≈ 8.78 µM) | 
23 | CCc1cc2nc3c4c5c6c(C)c(O)c4c(=O)c(c-3oc2cc1N1CCCCC1)NC(=O)/C(C)=C\C=C\[C@H](C)[C@H](O)[C@@H](C)[C@@H](O)[C@@H](C)[C@H](O)[C@H](C)[C@@H](OC)/C=C/O[C@@](C)(O6)C5=O [Compound 108] | 1 (≈ 1.17 µM) | 0.12 (≈ 0.141 µM) | 4 (≈ 4.68 µM) | 2 (≈ 2.34 µM) | 1 (≈ 1.17 µM) | 
24 | CO[C@H]1/C=C/O[C@@]2(C)Oc3c(C)c(O)c4c(=O)c(c5oc6cc(N7CCC(C(N)=O)CC7)cc(O)c6nc-5c4c3C2=O)NC(=O)/C(C)=C\C=C\[C@H](C)[C@H](O)[C@@H](C)[C@@H](O)[C@@H](C)[C@H](O)[C@@H]1C [Compound 109] | 0.03 (≈ 0.0339 µM) | 0.002 (≈ 0.00226 µM) | 1 (≈ 1.13 µM) | 0.25 (≈ 0.282 µM) | >8 | 
